Among the data in the supplement of paper PMC10307832 are relative viability values, retold here.

What all share (assay): relative viability (nuclei count vs DMSO), 5 days (fraction); higher = more cells survive
Compound in the test “Sorafenib + AZD7762”: CNC(=O)c1cc(Oc2ccc(NC(=O)Nc3ccc(Cl)c(C(F)(F)F)c3)cc2)ccn1 [Sorafenib] + NC(=O)Nc1cc(-c2cccc(F)c2)sc1C(=O)N[C@H]1CCCNC1 [AZD7762] (partner 0.2 µM)
The essentials: (§1)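 The day after seeding in 1536-well plates, lung cancer cell lines were treated by pin tool with a single drug, or with a fixed anchor-drug dose together with five library-drug doses (not always all listed) in √10 steps. After 5 days, a combined fix-and-stain solution (final 0.05% Triton X-100, 1% formaldehyde, 1 ug/ml Hoechst) was added. Nuclei counted on 4× images gave relative viability as treated counts over vehicle counts, reported as the median of duplicate plates.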

Compound in the test “Sorafenib + Dasatinib”: CNC(=O)c1cc(Oc2ccc(NC(=O)Nc3ccc(Cl)c(C(F)(F)F)c3)cc2)ccn1 [Sorafenib] + Cc1nc(Nc2ncc(C(=O)Nc3c(C)cccc3Cl)s2)cc(N2CCN(CCO)CC2)n1 [Dasatinib] (partner 0.075 µM)
The essentials: as §1

Compound in the test “Sorafenib + Alpelisib”: CNC(=O)c1cc(Oc2ccc(NC(=O)Nc3ccc(Cl)c(C(F)(F)F)c3)cc2)ccn1 [Sorafenib] + Cc1nc(NC(=O)N2CCC[C@H]2C(N)=O)sc1-c1ccnc(C(C)(C)C(F)(F)F)c1 [Alpelisib] (partner 2 µM)
The essentials: as §1

Compound in the test “Sorafenib + Olaparib”: CNC(=O)c1cc(Oc2ccc(NC(=O)Nc3ccc(Cl)c(C(F)(F)F)c3)cc2)ccn1 [Sorafenib] + O=C(c1cc(Cc2n[nH]c(=O)c3ccccc23)ccc1F)N1CCN(C(=O)C2CC2)CC1 [Olaparib] (partner 8 µM)
An outline of the steps:
as §1

Compound in the test “Sorafenib + Crizotinib”: CNC(=O)c1cc(Oc2ccc(NC(=O)Nc3ccc(Cl)c(C(F)(F)F)c3)cc2)ccn1 [Sorafenib] + C[C@@H](Oc1cc(-c2cnn(C3CCNCC3)c2)cnc1N)c1c(Cl)ccc(F)c1Cl [Crizotinib] (partner 1 µM)
The essentials: as §1

In the case of HCC-827, the relative viability in the test with Sorafenib + AZD7762 (first compound 0.08 µM) came to 0.211; with Sorafenib + AZD7762 (first compound 0.253 µM) it was 0.207; with Sorafenib + AZD7762 (first compound 2.53 µM), 0.215; in the test with Sorafenib + AZD7762 (first compound 8 µM), 0.161; in the test with Sorafenib + Dasatinib (first compound 0.08 µM) it was 0.38; in the test with Sorafenib + Dasatinib (first compound 0.253 µM) it was 0.435. The relative viability was 0.299 in the test with Sorafenib + Dasatinib (first compound 2.53 µM); 0.327 in the test with Sorafenib + Dasatinib (first compound 8 µM); 1.07 in the test with Sorafenib + Alpelisib (first compound 0.08 µM); 0.988 with Sorafenib + Alpelisib (first compound 2.53 µM); 0.826 with Sorafenib + Alpelisib (first compound 8 µM); 0.621 in the test with Sorafenib + Olaparib (first compound 0.08 µM). Further, the relative viability was 0.623 with Sorafenib + Olaparib (first compound 0.253 µM); 0.572 with Sorafenib + Olaparib (first compound 2.53 µM); 0.464 with Sorafenib + Olaparib (first compound 8 µM); 0.918 with Sorafenib + Crizotinib (first compound 0.253 µM); 0.94 with Sorafenib + Crizotinib (first compound 2.53 µM); 0.853 in the test with Sorafenib + Crizotinib (first compound 8 µM).

With HCC-78, the relative viability with Sorafenib + AZD7762 (first compound 0.08 µM) was determined as 0.846; with Sorafenib + AZD7762 (first compound 0.253 µM), 0.496; with Sorafenib + AZD7762 (first compound 2.53 µM) it was 0.863; with Sorafenib + AZD7762 (first compound 8 µM), 0.768; in the test with Sorafenib + Dasatinib (first compound 0.08 µM), 0.46; with Sorafenib + Dasatinib (first compound 0.253 µM), 0.393. For the same cell line, the relative viability with Sorafenib + Dasatinib (first compound 2.53 µM) stood at 0.549; in the test with Sorafenib + Dasatinib (first compound 8 µM), 0.397; with Sorafenib + Alpelisib (first compound 0.08 µM), 0.373; with Sorafenib + Alpelisib (first compound 0.253 µM), 0.297; in the test with Sorafenib + Alpelisib (first compound 2.53 µM), 0.367; with Sorafenib + Alpelisib (first compound 8 µM), 0.423. Also, the relative viability with Sorafenib + Olaparib (first compound 0.08 µM) turned out to be 0.891; with Sorafenib + Olaparib (first compound 0.253 µM), 0.953; in the test with Sorafenib + Olaparib (first compound 2.53 µM) it was 0.909; with Sorafenib + Olaparib (first compound 8 µM), 0.819; with Sorafenib + Crizotinib (first compound 0.08 µM), 0.394; in the test with Sorafenib + Crizotinib (first compound 0.253 µM), 0.361. Also, the results for the relative viability with Sorafenib + Crizotinib (first compound 2.53 µM) and with Sorafenib + Crizotinib (first compound 8 µM) were 0.483 and 0.507, respectively.

On to HCC-366, for which the relative viability in the test with Sorafenib + AZD7762 (first compound 0.08 µM) was 0.306; with Sorafenib + AZD7762 (first compound 0.253 µM), 0.283; with Sorafenib + AZD7762 (first compound 2.53 µM), 0.181; with Sorafenib + AZD7762 (first compound 8 µM), 0.0837; with Sorafenib + Dasatinib (first compound 0.08 µM), 0.626; in the test with Sorafenib + Dasatinib (first compound 0.253 µM), 0.551. Also, the relative viability amounted to 0.639 with Sorafenib + Dasatinib (first compound 2.53 µM); 0.518 with Sorafenib + Dasatinib (first compound 8 µM); 0.563 in the test with Sorafenib + Alpelisib (first compound 0.08 µM); 0.484 in the test with Sorafenib + Alpelisib (first compound 0.253 µM); 0.429 with Sorafenib + Alpelisib (first compound 2.53 µM); 0.307 in the test with Sorafenib + Alpelisib (first compound 8 µM). For the same cell line, the relative viability in the test with Sorafenib + Olaparib (first compound 0.08 µM) was found to be 0.354; with Sorafenib + Olaparib (first compound 0.253 µM), 0.319; with Sorafenib + Olaparib (first compound 2.53 µM) it was 0.287; in the test with Sorafenib + Olaparib (first compound 8 µM) it was 0.268; in the test with Sorafenib + Crizotinib (first compound 0.08 µM) it was 0.705; with Sorafenib + Crizotinib (first compound 0.253 µM), 0.464. For the same cell line, the relative viability was determined as 0.549 in the test with Sorafenib + Crizotinib (first compound 2.53 µM) and 0.356 with Sorafenib + Crizotinib (first compound 8 µM).

As to HARA, the relative viability with Sorafenib + AZD7762 (first compound 0.08 µM) turned out to be 0.317; with Sorafenib + AZD7762 (first compound 0.253 µM) it was 0.554; with Sorafenib + AZD7762 (first compound 2.53 µM) it was 0.217; with Sorafenib + AZD7762 (first compound 8 µM), 0.315; in the test with Sorafenib + Dasatinib (first compound 0.08 µM) it was 0.296; with Sorafenib + Dasatinib (first compound 0.253 µM), 0.197. The relative viability with Sorafenib + Dasatinib (first compound 2.53 µM) amounted to 0.248; with Sorafenib + Dasatinib (first compound 8 µM), 0.229; with Sorafenib + Alpelisib (first compound 0.08 µM), 0.991; with Sorafenib + Alpelisib (first compound 0.253 µM), 0.773; with Sorafenib + Alpelisib (first compound 2.53 µM) it was 0.856; with Sorafenib + Alpelisib (first compound 8 µM) it was 0.797. Also, the relative viability with Sorafenib + Olaparib (first compound 0.08 µM) is 0.868; with Sorafenib + Olaparib (first compound 0.253 µM), 0.794; with Sorafenib + Olaparib (first compound 2.53 µM) it was 0.391; with Sorafenib + Olaparib (first compound 8 µM), 0.478; with Sorafenib + Crizotinib (first compound 0.08 µM), 1.15; with Sorafenib + Crizotinib (first compound 0.253 µM) it was 1.02. Further, the values for the relative viability with Sorafenib + Crizotinib (first compound 2.53 µM) and in the test with Sorafenib + Crizotinib (first compound 8 µM) were 1.03 and 0.931, respectively.

For CAL-12T, the relative viability with Sorafenib + AZD7762 (first compound 0.08 µM) was 0.642; with Sorafenib + AZD7762 (first compound 0.253 µM) it was 0.528; in the test with Sorafenib + AZD7762 (first compound 2.53 µM), 0.616; with Sorafenib + AZD7762 (first compound 8 µM), 0.432; with Sorafenib + Dasatinib (first compound 0.08 µM), 0.658; with Sorafenib + Dasatinib (first compound 2.53 µM), 0.415. For the same cell line, the relative viability with Sorafenib + Dasatinib (first compound 8 µM) was determined as 0.114; with Sorafenib + Alpelisib (first compound 0.08 µM) it was 1.18; in the test with Sorafenib + Alpelisib (first compound 0.253 µM) it was 1.09; with Sorafenib + Alpelisib (first compound 2.53 µM) it was 0.971; with Sorafenib + Alpelisib (first compound 8 µM), 0.705; with Sorafenib + Olaparib (first compound 0.08 µM), 0.81. The relative viability in the test with Sorafenib + Olaparib (first compound 0.253 µM) came to 0.616; with Sorafenib + Olaparib (first compound 2.53 µM), 0.639; with Sorafenib + Olaparib (first compound 8 µM) it was 0.602; with Sorafenib + Crizotinib (first compound 0.08 µM), 0.751; with Sorafenib + Crizotinib (first compound 0.253 µM), 0.581; with Sorafenib + Crizotinib (first compound 2.53 µM), 0.524. The relative viability with Sorafenib + Crizotinib (first compound 8 µM) is 0.381.

As to NCI-H596, the relative viability with Sorafenib + AZD7762 (first compound 0.08 µM) is 1.21; with Sorafenib + AZD7762 (first compound 0.253 µM), 1; with Sorafenib + AZD7762 (first compound 2.53 µM) it was 0.94; with Sorafenib + AZD7762 (first compound 8 µM), 0.819; with Sorafenib + Dasatinib (first compound 0.08 µM) it was 0.68; with Sorafenib + Dasatinib (first compound 0.253 µM), 0.53. Also, the relative viability is 0.55 in the test with Sorafenib + Dasatinib (first compound 2.53 µM); 0.461 with Sorafenib + Dasatinib (first compound 8 µM); 0.471 with Sorafenib + Alpelisib (first compound 0.08 µM); 0.447 in the test with Sorafenib + Alpelisib (first compound 0.253 µM); 0.521 with Sorafenib + Alpelisib (first compound 2.53 µM); 0.509 in the test with Sorafenib + Alpelisib (first compound 8 µM). Moreover, the relative viability in the test with Sorafenib + Olaparib (first compound 0.08 µM) is 0.773; in the test with Sorafenib + Olaparib (first compound 0.253 µM), 0.73; with Sorafenib + Olaparib (first compound 2.53 µM) it was 0.751; in the test with Sorafenib + Olaparib (first compound 8 µM), 0.79; with Sorafenib + Crizotinib (first compound 0.08 µM) it was 0.963; with Sorafenib + Crizotinib (first compound 0.253 µM), 0.982. In addition, the relative viability in the test with Sorafenib + Crizotinib (first compound 2.53 µM) worked out at 1.06; with Sorafenib + Crizotinib (first compound 8 µM), 0.957.

As to HCC-44, the relative viability in the test with Sorafenib + AZD7762 (first compound 0.08 µM) turned out to be 0.99; with Sorafenib + AZD7762 (first compound 0.253 µM), 0.938; in the test with Sorafenib + AZD7762 (first compound 2.53 µM), 0.909; with Sorafenib + Alpelisib (first compound 0.08 µM) it was 0.833; with Sorafenib + Alpelisib (first compound 0.253 µM) it was 0.785; with Sorafenib + Alpelisib (first compound 2.53 µM) it was 0.793. Moreover, the relative viability was 0.649 with Sorafenib + Alpelisib (first compound 8 µM); 0.936 in the test with Sorafenib + Olaparib (first compound 0.08 µM); 0.876 with Sorafenib + Olaparib (first compound 0.253 µM); 0.92 in the test with Sorafenib + Olaparib (first compound 2.53 µM); 0.953 with Sorafenib + Olaparib (first compound 8 µM); 0.811 in the test with Sorafenib + Crizotinib (first compound 0.08 µM). Further, the figures for the relative viability with Sorafenib + Crizotinib (first compound 0.253 µM), with Sorafenib + Crizotinib (first compound 2.53 µM) and in the test with Sorafenib + Crizotinib (first compound 8 µM) were 0.735, 0.725 and 0.565, respectively.
